Measurements from paper PMC6522912, “Evaluation of the published kinase inhibitor set to identify multiple inhibitors of bacterial ATP-dependent mur ligases” (Journal of Enzyme Inhibition and Medicinal Chemistry, 2019).

Columns and labels:
[1] = target: E. coli MurC (Escherichia coli, UniProt P17952); experiment: Malachite green inhibition assay, MurC; format: biochemical; conditions: for remaining activity at 100 µM: 0.25 h, read-out: RA [%] at 100 µM MurC; for remaining activity at 100 µM / RA [%] at 100 µM MurC: Table S1, PKIS screening
Chain of E. coli MurC (P17952 whole entry): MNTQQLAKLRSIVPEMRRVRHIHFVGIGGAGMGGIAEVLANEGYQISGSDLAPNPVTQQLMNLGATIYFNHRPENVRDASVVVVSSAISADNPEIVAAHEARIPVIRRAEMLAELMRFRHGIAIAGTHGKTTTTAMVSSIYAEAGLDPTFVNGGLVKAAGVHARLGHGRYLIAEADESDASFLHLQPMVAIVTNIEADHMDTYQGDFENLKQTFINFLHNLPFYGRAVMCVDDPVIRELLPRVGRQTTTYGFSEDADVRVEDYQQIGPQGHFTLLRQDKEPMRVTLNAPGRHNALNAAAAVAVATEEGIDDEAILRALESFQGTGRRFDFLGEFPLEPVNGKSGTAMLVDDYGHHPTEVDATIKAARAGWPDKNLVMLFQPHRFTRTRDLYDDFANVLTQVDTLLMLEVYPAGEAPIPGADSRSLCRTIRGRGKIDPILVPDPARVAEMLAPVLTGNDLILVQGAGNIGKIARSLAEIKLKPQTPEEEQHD

[2] = target: E. coli MurF (Escherichia coli, UniProt P11880); experiment: biochemical; conditions: Table S1, PKIS screening; for remaining activity at 100 µM: 0.25 h, read-out: RA [%] at 100 µM MurF
Chain of E. coli MurF (P11880 whole entry): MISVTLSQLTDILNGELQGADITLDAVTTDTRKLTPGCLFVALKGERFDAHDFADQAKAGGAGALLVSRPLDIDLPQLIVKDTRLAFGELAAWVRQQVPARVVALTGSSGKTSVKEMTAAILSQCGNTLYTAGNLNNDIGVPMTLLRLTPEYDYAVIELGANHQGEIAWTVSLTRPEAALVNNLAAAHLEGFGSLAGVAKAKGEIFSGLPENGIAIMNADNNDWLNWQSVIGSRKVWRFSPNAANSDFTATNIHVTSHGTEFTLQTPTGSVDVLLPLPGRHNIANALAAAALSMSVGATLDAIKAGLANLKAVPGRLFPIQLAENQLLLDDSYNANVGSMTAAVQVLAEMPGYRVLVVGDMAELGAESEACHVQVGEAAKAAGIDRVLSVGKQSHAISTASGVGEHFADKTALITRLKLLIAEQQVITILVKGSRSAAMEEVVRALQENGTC

[3] = target: E. coli MurD (Escherichia coli, UniProt P14900); experiment: biochemical; conditions: for remaining activity at 100 µM: 0.25 h, Table S1, PKIS screening, read-out: RA [%] at 100 µM MurD
Chain of E. coli MurD (P14900 whole entry): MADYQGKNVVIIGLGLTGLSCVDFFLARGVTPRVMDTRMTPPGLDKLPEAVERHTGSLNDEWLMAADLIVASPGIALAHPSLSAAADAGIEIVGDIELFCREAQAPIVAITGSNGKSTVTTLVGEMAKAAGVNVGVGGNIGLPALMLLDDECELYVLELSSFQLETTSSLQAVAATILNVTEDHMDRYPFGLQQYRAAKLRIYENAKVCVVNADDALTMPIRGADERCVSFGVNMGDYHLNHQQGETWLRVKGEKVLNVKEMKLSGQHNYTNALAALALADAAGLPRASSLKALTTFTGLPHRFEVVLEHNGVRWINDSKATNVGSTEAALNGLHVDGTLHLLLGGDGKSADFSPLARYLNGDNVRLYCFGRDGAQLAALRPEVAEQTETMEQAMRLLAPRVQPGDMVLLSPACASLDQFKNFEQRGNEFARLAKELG
Procedure, shortened: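 Reaction 15 min at 37 °C, then phosphate detected with Biomol green at 650 nm. Values are residual activity versus 5% DMSO carrier controls.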

Structure (SMILES) | remaining activity at 100 µM [1] [%] | remaining activity at 100 µM [2] [%] | remaining activity at 100 µM [3] [%] | RA [%] at 100 µM MurC [1] [%] | RA [%] at 100 µM MurF [2] [%] | IC50 ([1]; printed in the RA cell of Table S1, read-out: IC50 MurC) [µM] | IC50 ([3]; printed in the RA cell of Table S1, read-out: IC50 MurD) [µM] | RA [%] at 100 µM MurD [3] [%]
CS(=O)(=O)CCNCc1nc(-c2ccc3ncnc(Nc4ccc(F)c(Cl)c4)c3c2)cs1 [GW461104A] | 88 | 84 | 73 | – | – | – | – | –
COc1cc(C=NNc2ncnc3c2cnn3-c2ccccc2)ccc1O [GW513184X] | 89 | 78 | 86 | – | – | – | – | –
CCn1c(-c2nonc2N)nc2ccccc21 [GW549034X] | – | – | 100 | 70 | 93 | – | – | –
c1ccc(Nc2ncc(-c3ccccc3)o2)cc1 [GW549390X] | 85 | 93 | 92 | – | – | – | – | –
N#Cc1ccc2c(-c3ccnc(NC4CC4)n3)c(-c3ccc(F)cc3)nn2c1 [GW561436X] | 87 | 77 | 76 | – | – | – | – | –
CS(=O)(=O)CCNCc1coc(-c2ccc3ncnc(Nc4ccc(OCc5ccccc5)cc4)c3c2)c1 [GW566221B] | 69 | 82 | 69 | – | – | – | – | –
CS(=O)(=O)CCNCc1ccc(-c2ccc3ncnc(Nc4ccc(OCc5cccc(C(F)(F)F)c5)cc4)c3c2)o1 [GW567808A] | 56 | 100 | 34 | – | – | – | – | –
Nc1nccc(-c2c(-c3ccc(F)cc3)nn3cc(C(F)(F)F)ccc23)n1 [GW568326X] | 68 | 78 | 90 | – | – | – | – | –
OCCCNc1nccc(-c2c(-c3ccc(F)cc3)nn3cc(C(F)(F)F)ccc23)n1 [GW569293E] | 54 | 72 | 89 | – | – | – | – | –
NS(=O)(=O)c1ccc(Nc2ncc(-c3ccccc3)o2)cc1 [GW572399X] | 80 | 74 | 100 | – | – | – | – | –
CCN(CC)S(=O)(=O)c1ccc(OC)c(Nc2ncc(-c3ccccc3)o2)c1 [GW572401X] | 63 | 82 | 60 | – | – | – | – | –
N#Cc1c(NC(=O)c2ccccc2F)sc2c1CCCC2 [GW572738X] | 88 | 100 | 91 | – | – | – | – | –
CS(=O)(=O)CCNCc1ccc(-c2ccc3ncnc(Nc4ccc(OCc5ccccc5)c(C(F)(F)F)c4)c3c2)o1 [GW574782A] | 83 | 100 | 60 | – | – | – | – | –
CS(=O)(=O)CCNCc1ccc(-c2ccc3ncnc(Nc4ccc(OCc5ccccc5)c(Cl)c4)c3c2)o1 [GW574783B] | 58 | 79 | 37 | – | – | – | – | –
COc1ccc(Nc2ncc(-c3ccccc3)o2)cc1OC [GW575533A] | 79 | 71 | 93 | – | – | – | – | –
Cc1ccc(Nc2ccnc(Nc3cccc(C(N)=O)c3)n2)cc1O [GW575808A] | 100 | 100 | 89 | – | – | – | – | –
CS(=O)(=O)CCNCc1ccc(-c2ccc3ncnc(Nc4ccc(OCc5cccc(F)c5)c(C(F)(F)F)c4)c3c2)o1 [GW576484X] | 100 | 100 | 55 | – | – | – | – | –
[O-][S+]1CCN(Cc2ccc(-c3ccc4ncnc(Nc5ccc(OCc6cccc(F)c6)c(Cl)c5)c4c3)o2)CC1 [GW576609A] | 71 | 78 | 54 | – | – | – | – | –
[O-][S+]1CCN(Cc2ccc(-c3ccc4ncnc(Nc5ccc(OCc6ccccc6)c(F)c5)c4c3)o2)CC1 [GW576924A] | 39 | 58 | 85 | – | – | – | – | –
COc1ccccc1Nc1ncc(-c2ccccc2)o1 [GW577921A] | 71 | 76 | 84 | – | – | – | – | –
CS(=O)(=O)CCNCc1ccc(-c2ccc3ncnc(Nc4ccc(OCc5ccccc5)c(Br)c4)c3c2)o1 [GW580496A] | 95 | 90 | 48 | – | – | – | – | –
CCS(=O)(=O)c1ccc(OC)c(Nc2ncc(-c3cccc(OC)c3)o2)c1 [GW580509X] | 100 | 93 | 82 | – | – | – | – | –
NC(=O)c1ccc2c(-c3ccnc(NCCCO)n3)c(-c3ccc(F)cc3)nn2c1 [GW581744X] | 73 | 79 | 74 | – | – | – | – | –
[O-][S+]1CCN(Cc2ccc(-c3ccc4ncnc(Nc5ccc(OCc6ccccc6)c(Cl)c5)c4c3)o2)CC1 [GW583373A] | 62 | 60 | 59 | – | – | – | – | –

Structure (SMILES) | remaining activity at 100 µM [1] [%] | remaining activity at 100 µM [2] [%] | remaining activity at 100 µM [3] [%] | RA [%] at 100 µM MurC [1] [%] | RA [%] at 100 µM MurF [2] [%] | IC50 ([1]; printed in the RA cell of Table S1, read-out: IC50 MurC) [µM] | IC50 ([3]; printed in the RA cell of Table S1, read-out: IC50 MurD) [µM] | RA [%] at 100 µM MurD [3] [%]
COC(=O)Nc1nc2ccc(Oc3ccc(NC(=O)Nc4cccc(Cl)c4)cc3)cc2[nH]1 [GW589961A] | 77 | 83 | 81 | – | – | – | – | –
COC(=O)Nc1nc2ccc(Sc3ccc(NC(=O)Nc4cc(C(F)(F)F)ccc4F)cc3)cc2[nH]1 [GW607049C] | 62 | 91 | 80 | – | – | – | – | –
Cc1nnc(-c2ccc(C)c(-c3ccc(C(=O)Nc4cccc(C#N)c4)cc3)c2)o1 [GW607117X] | 72 | 90 | 100 | – | – | – | – | –
COc1cc(Nc2nccc(Nc3ccc4c(C)n[nH]c4c3)n2)cc(OC)c1OC [GW612286X] | 86 | 100 | 94 | – | – | – | – | –
O=S(=O)(CCOCc1ccc(-c2ccc3ncnc(Nc4ccc(OCc5cccc(F)c5)c(Cl)c4)c3c2)o1)c1ccccc1 [GW615311X] | 97 | 100 | 91 | – | – | – | – | –
CS(=O)(=O)CCN(CC#N)Cc1ccc(-c2ccc3ncnc(Nc4ccc(OCc5cccc(F)c5)c(Cl)c4)c3c2)o1 [GW616030X] | 76 | 80 | 59 | – | – | – | – | –
CCS(=O)(=O)c1ccc(OC)c(Nc2ncc(-c3cccc(C(C)=O)c3)o2)c1 [GW621431X] | 68 | 73 | 93 | – | – | – | – | –
CCCN(CCS(C)(=O)=O)Cc1ccc(-c2ccc3ncnc(Nc4ccc(OCc5cccc(F)c5)c(Cl)c4)c3c2)o1 [GW621823A] | 36 | 96 | 42 | – | – | – | – | –
CCS(=O)(=O)c1ccc(OC)c(Nc2ncc(-c3cccc(F)c3)o2)c1 [GW621970X] | 76 | 89 | 55 | – | – | – | – | –
CCS(=O)(=O)c1ccc(OC)c(Nc2ncc(-c3ccccc3Cl)o2)c1 [GW622055X] | 74 | 80 | 65 | – | – | – | – | –
COc1cc(Nc2ncc(-c3ccccc3)o2)cc(OC)c1OC [GW627512B] | 98 | 100 | 72 | – | – | – | – | –
N#Cc1cccc(Nc2ncc(-c3ccccc3)o2)c1 [GW627834A] | 78 | 85 | 75 | – | – | – | – | –
COc1cc(Nc2ncc(-c3ccccc3)o2)cc(OC)c1 [GW631581B] | 64 | 97 | 79 | – | – | – | – | –
Cc1cccc(Nc2ncc(-c3ccccc3)o2)c1 [GW632046X] | 100 | 97 | 84 | – | – | – | – | –
COc1ccc(COc2ccc(Cc3cnc(N)nc3N)cc2OC)cc1 [GW632580X] | 88 | 99 | 89 | – | – | – | – | –
O=S(=O)(CCNCc1ccc(-c2ccc3ncnc(Nc4ccc(OCc5cccc(F)c5)c(Cl)c4)c3c2)o1)c1ccccc1 [GW633459A] | 100 | 84 | 80 | – | – | – | – | –
COc1ccc(-c2coc3ncnc(N)c23)cc1 [GW642125X] | 100 | 85 | 83 | – | – | – | – | –
COc1ccc(-c2cc3c(N)ncnc3o2)cc1 [GW642138X] | 74 | 81 | 93 | – | – | – | – | –
COc1cc(C=NNc2ncnc3c2cnn3Cc2ccccc2)ccc1O [GW643971X] | 56 | 25 | 78 | – | – | – | – | –
COc1cc(/C=N/Nc2ncnc3c2cnn3C(C)C)ccc1O [GW644007X] | 87 | 78 | 91 | – | – | – | – | –
Fc1cccc(COc2ccc(Nc3ncncc3C#Cc3ccccc3)cc2Cl)c1 [GW651576X] | 44 | 91 | 43 | – | – | 120 | 90 | –
CCc1cccc(NC(=O)Nc2ccc(Oc3ccc4nc(NC(=O)OC)[nH]c4c3)cc2)c1 [GW673715X] | 79 | 68 | 83 | – | – | – | – | –
CCS(=O)(=O)c1ccc(OC)c(Nc2ncc(-c3cccc(-c4ccccc4F)c3)o2)c1 [GW678313X] | 87 | 82 | 64 | – | – | – | – | –
COc1ccc(-c2cc(-c3c[nH]nc3-c3ccccn3)ccn2)cc1 [GW679410X#4] | – | – | – | 61 | 82 | – | – | 98
